Where two headings read alike, the source gives them in different places.
Columns and labels:
MCF-7 cells = assay: Proliferation assay, crystal violet staining (cell test), MCF-7; format: cell-based; conditions: Homo sapiens
Description: (§1) Cultivated human tumor cells (as indicated) are flattened out at a density of 5000 cells/measuring point in a 96-hole multititer plate in 200 μl of the corresponding growth medium. After 24 hours, the cells of one plate (zero-point plate) are colored with crystal violet (see below), while the medium of the other plates is replaced by fresh culture medium (200 μl), to which the test substances are added at various concentrations (0 μm, as well as in the range of 0.01-30 μm; the final concentration of the solvent dimethyl sulfoxide is 0.5%). The cells are incubated for 4 days in the presence of test substances. The cell proliferation is determined by coloring the cells with crystal violet: the cells are fixed by adding 20 μl/measuring point of a 11% glutaric aldehyde solution for 15 minutes at room temperature. After three washing cycles of the fixed cells with water, the plates are dried at room temperature. The cells are colored by adding 100 μl/measuring point of a 0.1% crystal violet solution (pH is set at 3 by adding acetic acid). After three washing cycles of the colored cells with water, the plates are dried at room temperature. The dye is dissolved by adding 100 μl/measuring point of a 10% acetic acid solution. The extinction is determined by photometry at a wavelength of 595 nm. The change of cell growth, in percent, is calculated by standardization of the measured values to the extinction values of the zero-point plate (=0%) and the extinction of the untreated (0 μm) cells (=100%).

CDK2/CycE = target: T1, CDK2/CycE (Homo sapiens, UniProt P24941); assay: CDK2/CycE kinase assay (enzyme test); format: biochemical; conditions: read-out: Inhibition IC50 [nM] CDK2/CycE
T1 construct: GST; purchased Dr. Dieter Marmé, Klinik für Tumorbiologie, Freiburg; host or cells: baculovirus-infected Sf9 insect cells
Description: Recombinant CDK2- and CycE-GST-fusion proteins, purified from baculovirus-infected insect cells (Sf9), are obtained by Dr. Dieter Marmé, Klinik für Tumorbiologie [Clinic for Tumor Biology], Freiburg. Histone IIIS, which is used as a kinase substrate, is purchased by the Sigma Company.
The reaction was is stopped by adding EDTA solution (250 mmol, pH 8.0, 14 μl/measuring point).
From each reaction batch, 10 μl applied to P30 filter strips (Wallac Company), and non-incorporated ^33P-ATP is removed by subjecting the filter strips to three washing cycles for 10 minutes each in 0.5% phosphoric acid. After the filter strips are dried for one hour at 70° C., the filter were are covered with scintillator strips (MeltiLex™ A, Wallac Company) and baked for one hour at 90° C. The amount of incorporated ^33P (substrate phosphorylation) is determined by scintillation measurement in a gamma-radiation measuring device (Wallac).

[1] = Solubility (Löslichkeit, g/l); format: physicochemical
[2] = test system: human tumor cells (as indicated); assay: Proliferation assay, crystal violet staining, other human tumor cells as indicated in the tables; format: cell-based; conditions: 4 days incubation
Description: as §1

[3] = MCF7, MCF-7 cells, comparison with known compounds, read-out: MCF-7 IC50
[4] = 96 h, MCF7 cells, 4 days incubation, read-out: Proliferation IC50 [μM] MCF7
[5] = NCI-H460, 96 h, H460 cells, read-out: Proliferation IC50 [μM] H460
[6] = DU-145, 96 h, DU145 cells, read-out: Proliferation IC50 [μM] DU145
[7] = HCT-116, 96 h, HCT116 cells, read-out: Proliferation IC50 [μM] HCT116

| IC50 (MCF-7 cells; [4]) [µM] | IC50 (CDK2/CycE) [nM] | Sw [1] [g/L] | Compound | other results |
| --- | --- | --- | --- | --- |
| 3 | 180 |  | C#CCNc1nc(Nc2ccc(SC(F)F)cc2)ncc1Br [Example 23, 5-Bromo-N2-(4-difluoromethylthiophenyl)-N4-2-propynyl-2,4-pyrimidine diamine] |  |
| 5 | 400 |  | C#CCNc1nc(Nc2ccc(SC(F)(F)F)cc2)ncc1Br [Example 24, 5-Bromo-N4-2-propynyl-N2-(4-trifluoromethylthiophenyl)-2,4-pyrimidine diamine] |  |
| 3 | 300 |  | C#CCNc1nc(Nc2cccc(SC)c2)ncc1Br [Example 26] |  |
|  | > 10000 |  | C#CCNc1nc(Nc2cccc(S(=O)(=O)C(F)(F)F)c2)ncc1Br [Example 27] |  |
|  | 1800 |  | C#CCNc1nc(Nc2cccc(S(=O)(=O)NCCCC)c2)ncc1Br [Example 34] |  |
| > 10 | 120 |  | C#CCNc1nc(Nc2cccc(SC(F)(F)F)c2)ncc1Br [Example 35, 5-Bromo-N4-2-propynyl-N2-(3-trifluoromethylthiophenyl)-2,4-pyrimidine diamine] |  |
| 4 | 70 | 0.006 | C#CCNc1nc(Nc2ccc3[nH]ncc3c2)ncc1Br [Example 37, N-[5-Bromo-4-(2-propynylamino)-2-pyrimidinyl]-indazol-5-amine] |  |
| > 10 | 80 |  | C#CCNc1nc(Nc2ccc3scnc3c2)ncc1Br [Example 38, N-[5-Bromo-4-(2-propynylamino)-2-pyrimidinyl]-benzothiazole-5-amine] |  |
|  | 300 | 0.0016 | C#CCNc1nc(Nc2ccc3c(c2)CCN3S(C)(=O)=O)ncc1Br [Example 39] |  |
| 2 | 7 | 0.0069 | NS(=O)(=O)c1ccc(Nc2ncc(Br)c(NCC3CC3)n2)cc1 [Example 46] |  |
| 0.7 | 12 |  | NS(=O)(=O)c1ccc(Nc2ncc(Br)c(OCCCC(F)(F)F)n2)cc1 [Example 47] | IC50 [2, 6]: 0.9 µM; IC50 [2, 7]: 1.3 µM; IC50 [2, 5]: 1.8 µM |
| > 10 | 50 | 0.044 | NS(=O)(=O)c1ccc(Nc2ncc(Br)c(NCCCC(=O)O)n2)cc1 [Example 49] |  |
|  | 150 |  | C#CCNc1nc(Nc2ccc(C(C)=O)cc2)ncc1Br [Example 50, 1-[4-[(5-Bromo-4-(2-propynylamino)-2-pyrimidinyl)amino]phenyl]-ethanone] |  |
| 8 | 70 |  | C#CCOc1nc(Nc2cccc(OCC3CO3)c2)ncc1Br (stereo not drawn) [Example 51] |  |
| 1.6 | 300 | 0.026 | CC(=O)c1ccc(Nc2ncc(Br)c(N[C@H](CO)C(C)C)n2)cc1 [Example 53] |  |
| 4 | 80 | 0.023 | CC(=O)c1ccc(Nc2ncc(Br)c(N[C@@H](CO)C(C)C)n2)cc1 [Example 56] |  |
|  | 400 | 0.0005 | CC(=O)c1ccc(Nc2ncc(Br)c(OCCCC(F)(F)F)n2)cc1 [Example 84] |  |
|  | 2000 | 0.001 | CCOC(=O)CCCNc1nc(Nc2ccc(C(C)=O)cc2)ncc1Br [Example 85] |  |
|  | 3000 |  | CCOCCOCCOc1nc(Nc2ccc(C(C)=O)cc2)ncc1Br [Example 86] |  |
| 0.8 | 250 | 0.003 | CC(=O)c1ccc(Nc2ncc(Br)c(NCCc3c[nH]cn3)n2)cc1 [Example 87] |  |
|  | 400 |  | C#CCOc1nc(Nc2ccc(OCC(O)CN3CCN(Cc4ccc5c(c4)OCO5)CC3)cc2)ncc1Br (stereo not drawn) [Example 96] |  |
|  | 2000 |  | C#CCOc1nc(Nc2ccc(OCC(O)CN3CCN(c4ccccc4C#N)CC3)cc2)ncc1Br (stereo not drawn) [Example 98] |  |

More lines, now with the values behind:

| Compound | IC50 (MCF-7 cells; [4]) [µM] | IC50 (CDK2/CycE) [nM] | Sw [1] [g/L] | other results |
| --- | --- | --- | --- | --- |
| O=C1Cc2c([nH]c3ccc([N+](=O)[O-])cc23)-c2ccccc2N1 [Alsterpaullone, reference compound] |  |  |  | IC50 (MCF-7 cells; [3]): 1.2 µM |
| COC[C@H](C)Nc1nc(Nc2ccc(O)cc2)ncc1Br [Example 1] | 8 | 300 |  |  |
| Oc1ccc(Nc2ncc(Br)c(NCCN3CCOCC3)n2)cc1 [Example 2] |  | 700 |  |  |
| OCC(CO)Nc1nc(Nc2ccc(O)cc2)ncc1Br [Example 3] | 8 | 200 | 0.039 |  |
| CC(C)[C@H](CO)Nc1nc(Nc2ccc(O)cc2)ncc1Br [Example 4] | 8 | 40 | 0.042 |  |
| C#CCNc1nc(Nc2ccc(O)cc2)ncc1Br [Example 5, 4-[[5-Bromo-4-(2-propynylamino)-2-pyrimidinyl]amino]-phenol] | 10 | 90 | 0.043 |  |
| C#CCOc1nc(Nc2ccc(O)cc2)ncc1Br [Example 6, 4-[[5-Bromo-4-(2-propynyloxy)-2-pyrimidinyl]amino]-phenol] | 4 | 70 | 0.008 | IC50 [2, 5]: 6 µM |
| COC[C@H](C)Nc1nc(Nc2ccc(S(N)(=O)=O)cc2)ncc1Br [Example 7] | 0.7 | 6 | 0.028 | IC50 [2, 6]: 0.5 µM; IC50 [2, 7]: 1.2 µM; IC50 [2, 5]: 1.5 µM |
| NS(=O)(=O)c1ccc(Nc2ncc(Br)c(NCCN3CCOCC3)n2)cc1 [Example 8] | 4 | < 10 | 0.007 |  |
| NS(=O)(=O)c1ccc(Nc2ncc(Br)c(NC(CO)CO)n2)cc1 [Example 9] | 0.9 | 7 |  | IC50 [2, 6]: 3 µM; IC50 [2, 7]: 3 µM; IC50 (MCF-7 cells; [3]): 0.9 µM; Löslichkeit ([1]; comparison with known compounds): 0.009 g/L |
| CC(C)[C@H](CO)Nc1nc(Nc2ccc(S(N)(=O)=O)cc2)ncc1Br [Example 10] | 0.2 | 4 |  | IC50 [2, 6]: 0.5 µM; IC50 [2, 7]: 0.5 µM; IC50 [2, 5]: 0.5 µM |
| C#CCNc1nc(Nc2ccc(S(N)(=O)=O)cc2)ncc1Br [Example 11] | 0.2 | 6 |  | IC50 [2, 6]: 0.2 µM; IC50 [2, 7]: 0.3 µM; IC50 [2, 5]: 0.5 µM; IC50 (MCF-7 cells; [3]): 0.2 µM |
| COC[C@H](C)Nc1nc(Nc2ccc(SC)cc2)ncc1Br [Example 12] | 4 | 400 |  |  |
| CSc1ccc(Nc2ncc(Br)c(NCCN3CCOCC3)n2)cc1 [Example 13] | > 10 | 2000 |  |  |
| CSc1ccc(Nc2ncc(Br)c(NC(CO)CO)n2)cc1 [Example 14] | 3 | 200 | 0.013 |  |
| CSc1ccc(Nc2ncc(Br)c(N[C@@H](CO)C(C)C)n2)cc1 [Example 15] | > 10 | 300 | 0.024 |  |
| C#CCNc1nc(Nc2ccc(SC)cc2)ncc1Br [Example 16, 5-Bromo-N2-(4-methylthiophenyl)-N4-2-propynyl-2,4-pyrimidine diamine] | 3 | 300 |  |  |
| COC[C@H](C)Nc1nc(Nc2cccc(S(=O)(=O)CCO)c2)ncc1Br [Example 17] | > 10 | 1000 | 0.04 |  |
| O=S(=O)(CCO)c1cccc(Nc2ncc(Br)c(NCCN3CCOCC3)n2)c1 [Example 18] |  | 2000 | 0.039 |  |
| O=S(=O)(CCO)c1cccc(Nc2ncc(Br)c(NC(CO)CO)n2)c1 [Example 19] | > 10 | 800 | 0.041 |  |
| C#CCOc1nc(Nc2cccc(O)c2)ncc1Br [Example 20] | 4 | 60 |  |  |
| C#CCNc1nc(Nc2cccc(S(=O)(=O)CCO)c2)ncc1Br [Example 21] | 2 | 400 |  |  |
| C#CCNc1nc(Nc2ccc(CP(=O)(OCC)OCC)cc2)ncc1Br [Example 31] | 7 | 800 | 0.0023 |  |
| O=C1Cc2c([nH]c3ccc(Br)cc23)-c2ccccc2N1 [Kenpaullone, reference compound] |  |  |  | IC50 (MCF-7 cells; [3]): 6 µM |
| Cn1cnc2c(NCc3ccccc3)nc(NCCO)nc21 [Olomoucine, reference compound] |  |  |  | IC50 (MCF-7 cells; [3]): 30 µM |
| CC(C)[C@H](CO)Nc1nc(Nc2cccc(Cl)c2)c2ncn(C(C)C)c2n1 [Purvalanol A, reference compound] |  |  |  | IC50 (MCF-7 cells; [3]): 2 µM |

From patent publication US7598260B2, “CDK-inhibitory pyrimidines, their production and use as pharmaceutical agents” (Bayer Schering Pharma Aktiengesellschaft, priority 2001, dated 2009)
